This experiment has as its target T1, NIK (Homo sapiens, UniProt Q99558).
T1 construct: Both assays utilize a truncated form of NIK containing only the catalytic domain; made in house; host or cells: baculovirus expression system (insect cells implied)
Nature of the experiment: homogenous time resolved fluorescence (HTRF) assay for NIK Ki measurement. To be noted: truncated NIK (catalytic domain only), autophosphorylation; 10 nM enzyme; 20, 100, 200 or 500 μM ATP; room temperature, 2 hours; read-out: Ki activity in the homogenous time resolved fluorescence (HTRF) assay for NIK. In kind it is biochemical. In general terms: TR-FRET usually uses a lanthanide donor and a delayed reading to cut background.

This is an account of results in patent US20110086834A1, “ALKYNYL ALCOHOLS AS KINASE INHIBITORS” (AMGEN INC., priority 2008, published 2011).

A word on the Ki: it is the equilibrium dissociation constant of an inhibitor or competing ligand from its target.

T1 sequence (Q99558 400-655 limits assumed): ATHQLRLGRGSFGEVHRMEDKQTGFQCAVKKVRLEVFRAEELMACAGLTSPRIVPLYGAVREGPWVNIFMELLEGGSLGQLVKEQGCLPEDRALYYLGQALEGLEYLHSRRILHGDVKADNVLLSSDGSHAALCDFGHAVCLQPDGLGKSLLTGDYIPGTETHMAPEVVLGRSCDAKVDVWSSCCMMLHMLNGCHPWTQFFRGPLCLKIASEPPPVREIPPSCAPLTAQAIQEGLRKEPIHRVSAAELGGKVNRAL

For `Cn1c2c(c3cc(C#CC4(O)CCCC4)ccc31)-c1nc(N)ncc1CNC2=O` [Example 245, 2-Amino-1′-((1-hydroxycyclopentyl)ethynyl)-8-methyl-5,8-dihydropyrimido[4′,5′:5,6]azepino[3,4-b]indol-7(6H)-one], the inhibitory constant (Ki) was less than 1000 nM. The value for `COCCN1Cc2cnc(N)nc2-c2c(n(C)c3ccc(C#CC4(O)CCCC4)cc23)C1=O` [Example 246, 2-Amino-1′-((1-hydroxycyclopentyl)ethynyl)-6-(2-methoxyethyl)-8-methyl-5,8-dihydropyrimido[4′,5′:5,6]azepino[3,4-b]indol-7(6H)-one] was less than 1000 nM. The value for `Cn1c2c(c3cc(C#CC4(O)CCCC4)ccc31)-c1nc(N)ncc1CN(Cc1ccccn1)C2=O` [Example 247, 2-Amino-1′-((1-hydroxycyclopentyl)ethynyl)-8-methyl-6-(2-pyridinylmethyl)-5,8-dihydropyrimido[4′,′:5,6]azepino[3,4-b]indol-7(6H)-one] was less than 1000 nM; that for `CC(O)(C#Cc1ccc2c(c1)N(c1nc(N)ncc1Cl)CC21CCCOC1)c1nccs1` (stereo not drawn) [Example 248, 4-(1-(2-Amino-5-chloro-4-pyrimidinyl)-1,2,5′,6′-tetrahydro-4′H-spiro[indole-3,3′-pyran]-6-yl)-2-(1,3-thiazol-2-yl)-3-butyn-2-ol] was less than 1000 nM; that for `Nc1ncc2c(n1)-c1c(nc3ccc(C#CC4(O)CCCC4)cn13)CCC2` [Example 249, 1-((2-amino-6,7-dihydro-5H-pyrido[1″,2″:1′,2′]imidazo[4′,′:6,7]cyclohepta[1,2-d]pyrimidin-11-yl)ethynyl)cyclopentanol] was less than 1000 nM. As for `CC(C)(O)C#Cc1ccc2nc3c(n2c1)-c1nc(N)ncc1CCC3` [Example 250, 4-(2-Amino-6,7-dihydro-5H-pyrido[1″,2″:1′,2′]imidazo[4′,′:6,7]cyclohepta[1,2-d]pyrimidin-11-yl)-2-methyl-3-butyn-2-ol], the figure is less than 1000 nM; as for `CNc1ncc2c(n1)-c1c(nc3ccc(C#CC4(O)CCCC4)cn13)CCC2` [Example 251, 1-((2-(methylamino)-6,7-dihydro-5H-pyrido[1″,2″:1′,2′]imidazo[4′,5′:6,7]-cyclohepta[1,2-d]pyrimidin-11-yl)ethynyl)cyclopentanol], 1000 to 30000 nM. Take `CNc1ncc2c(n1)-c1c(nc3ccc(C#CC(C)(C)O)cn13)CCC2` [Example 252, 2-methyl-4-(2-(methylamino)-6,7-dihydro-5H-pyrido[1″,2″:1′,2′]imidazo[4′,′:6,7]-cyclohepta[1,2-d]pyrimidin-11-yl)-3-butyn-2-ol]: the Ki lay in the range of 1000 to 30000 nM. The value for `O=C(NCCCN1CCOCC1)c1cnccc1Nc1cccc(C#CC2(O)CCCC2)c1` [Example 253, 4-((3-((1-Hydroxycyclopentyl)ethynyl)phenyl)amino)-N-(3-(4-morpholinyl)propyl)-3-pyridinecarboxamide] was 1000 to 30000 nM; that for `O=C(NCCCN1CCOCC1)c1cnccc1-n1ccc2ccc(C#CC3(O)CCCC3)cc21` [Example 254, 4-(6-((1-Hydroxycyclopentyl)ethynyl)-1H-indol-1-yl)-N-(3-(4-morpholinyl)propyl)-3-pyridinecarboxamide] was 1000 to 30000 nM; that for `CNC(=O)c1cc(N2CCc3ccc(C#CC4(O)CCCC4)cc32)ccn1` [Example 255, 4-(6-((1-hydroxycyclopentyl)ethynyl)-2,3-dihydro-1H-indol-1-yl)-N-methyl-2-pyridinecarboxamide] was 1000 to 30000 nM. In the case of `OC1(C#Cc2ccc3ccn(-c4ccnc(Nc5ccccc5)n4)c3c2)CCCC1` [Example 256, 1-((1-(2-(Phenylamino)-4-pyrimidinyl)-1H-indol-6-yl)ethynyl)cyclopentanol], the Ki is less than 1000 nM. The value for `OC1(C#Cc2ccc3ccn(-c4cc(Nc5ccccc5)ncn4)c3c2)CCCC1` [Example 257, 1-((1-(6-(phenylamino)-4-pyrimidinyl)-1H-indol-6-yl)ethynyl)cyclopentanol] was 1000 to 30000 nM. The value for `COc1cc(Nc2cc(-n3ccc4ccc(C#CC5(O)CCCC5)cc43)ncn2)cc(OC)c1OC` [Example 258, 1-((1-(6-((3,4,5-tris(methyloxy)phenyl)amino)-4-pyrimidinyl)-1H-indol-6-yl)ethynyl)cyclopentanol] was 1000 to 30000 nM; that for `COc1cc(Nc2nccc(-n3ccc4ccc(C#CC5(O)CCCC5)cc43)n2)cc(OC)c1OC` [Example 259, 1-((1-(2-((3,4,5-tris(methyloxy)phenyl)amino)-4-pyrimidinyl)-1H-indol-6-yl)-ethynyl)cyclopentanol] was less than 1000 nM; that for `COc1ccc(Nc2cc(-n3ccc4ccc(C#CC5(O)CCCC5)cc43)ncn2)cc1` [Example 260, 1-((1-(6-((4-(methyloxy)phenyl)amino)-4-pyrimidinyl)-1H-indol-6-yl)-ethynyl)-cyclopentanol] was 1000 to 30000 nM. The value for `COCCOc1cnc(N)nc1-c1c[nH]c2ccc(C#CC(C)(O)C(F)(F)F)cc12` (stereo not drawn) [Example 261, 4-(3-(2-Amino-5-((2-(methyloxy)ethyl)oxy)-4-pyrimidinyl)-1H-indol-5-yl)-1,1,1-trifluoro-2-methyl-3-butyn-2-ol] was 1000 to 30000 nM. For the molecule `CCN(CC)CCNC(=O)c1ccc(Nc2nccc(N3CCc4ccc(C#CC5(O)CCCC5)cc43)n2)cc1` [Example 262, N-(2-(diethylamino)ethyl)-4-((4-(6-((1-hydroxycyclopentyl)ethynyl)-2,3-dihydro-1H-indol-1-yl)-2-pyrimidinyl)amino)benzamide], the Ki is less than 1000 nM.

Regarding `Nc1nccc(N2CCc3ccc(C#CC4(O)CCSC4)cc32)n1` (stereo not drawn) [Example 264, 3-((1-(2-amino-4-pyrimidinyl)-2,3-dihydro-tH-indol-6-yl)ethynyl)tetrahydro-3-thiopheneol], the Ki is less than 1000 nM. The value for `CCC(C)(O)C#Cc1ccc2c(c1)N(c1ccnc(N)n1)CC2` (stereo not drawn) [Example 265, 1-(1-(2-Amino-4-pyrimidinyl)-2,3-dihydro-1H-indol-6-yl)-3-methyl-1-pentyn-3-ol] was less than 1000 nM; that for `CC(C)C(C)(O)C#Cc1ccc2c(c1)N(c1ccnc(N)n1)CC2` (stereo not drawn) [Example 266, 1-(1-(2-Amino-4-pyrimidinyl)-2,3-dihydro-1H-indol-6-yl)-3,4-dimethyl-1-pentyn-3-ol] was 1000 to 30000 nM.

In the case of `CC(O)(C#Cc1ccc2c(c1)N(c1ccnc(N)n1)CC2)c1ccccc1` (stereo not drawn) [Example 267, 4-(1-(2-Amino-4-pyrimidinyl)-2,3-dihydro-1H-indol-6-yl)-2-phenyl-3-butyn-2-ol], the inhibition constant Ki is less than 1000 nM. In the case of `CC(C)(C)C(C)(O)C#Cc1ccc2c(c1)N(c1ccnc(N)n1)CC2` (stereo not drawn) [Example 268, 1-(1-(2-Amino-4-pyrimidinyl)-2,3-dihydro-1H-indol-6-yl)-3,4,4-trimethyl-1-pentyn-3-ol], the Ki was in the range of 1000 to 30000 nM. As for `CC(O)(C#Cc1ccc2c(c1)N(c1ccnc(N)n1)CC2)c1ccco1` (stereo not drawn) [Example 269, 4-(1-(2-Amino-4-pyrimidinyl)-2,3-dihydro-1H-indol-6-yl)-2-(2-furanyl)-3-butyn-2-ol], the figure is less than 1000 nM; as for `COc1ccc(C#CC2(O)CCCC2)cc1Nc1ccnc(N)n1` [Example 270, 1-((3-((2-amino-4-pyrimidinyl)amino)-4-(methyloxy)phenyl)ethynyl)cyclopentanol], less than 1000 nM; as for `CC(C)(O)C#Cc1ccc2c(c1)N(c1ccnc(N)n1)CC2` [Example 271, 4-(1-(2-Amino-4-pyrimidinyl)-2,3-dihydro-1H-indol-6-yl)-2-methyl-3-butyn-2-ol], less than 1000 nM.

In the case of `CC(O)(C#Cc1ccc2c(c1)N(c1ccnc(N)n1)CC2)c1ccncc1` (stereo not drawn) [Example 272, 4-(1-(2-Amino-4-pyrimidinyl)-2,3-dihydro-1H-indol-6-yl)-2-(4-pyridinyl)-3-butyn-2-ol], the Ki was in the range of 1000 to 30000 nM. As for `CC(O)(C#Cc1ccc2c(c1)N(c1ccnc(N)n1)CC2)c1cccs1` (stereo not drawn) [Example 273, 4-(1-(2-Amino-4-pyrimidinyl)-2,3-dihydro-1H-indol-6-yl)-2-(2-thienyl)-3-butyn-2-ol], the figure is less than 1000 nM; as for `CC(O)(C#Cc1ccc2c(c1)N(c1ccnc(N)n1)CC2)c1ccsc1` (stereo not drawn) [Example 274, 4-(1-(2-Amino-4-pyrimidinyl)-2,3-dihydro-1H-indol-6-yl)-2-(3-thienyl)-3-butyn-2-ol], less than 1000 nM.

For the molecule `Cc1ccc(C(C)(O)C#Cc2ccc3c(c2)N(c2ccnc(N)n2)CC3)o1` (stereo not drawn) [Example 275, 4-(1-(2-Amino-4-pyrimidinyl)-2,3-dihydro-1H-indol-6-yl)-2-(5-methyl-2-furanyl)-3-Butyn-2-ol], the Ki is less than 1000 nM. As for `CC(O)(C#Cc1ccc2c(c1)N(c1ccnc(N)n1)CC2)c1nccs1` (stereo not drawn) [Example 276, 4-(1-(2-Amino-4-pyrimidinyl)-2,3-dihydro-1H-indol-6-yl)-2-(1,3-thiazol-2-yl)-3-butyn-2-ol], the figure is less than 1000 nM; as for `Cc1csc(C(C)(O)C#Cc2ccc3c(c2)N(c2ccnc(N)n2)CC3)c1` (stereo not drawn) [Example 277, 4-(1-(2-amino-4-pyrimidinyl)-2,3-dihydro-1H-indol-6-yl)-2-(4-methyl-2-thienyl)-3-butyn-2-ol], less than 1000 nM; as for `Cc1ccsc1C(C)(O)C#Cc1ccc2c(c1)N(c1ccnc(N)n1)CC2` (stereo not drawn) [Example 278, 4-(1-(2-Amino-4-pyrimidinyl)-2,3-dihydro-1H-indol-6-yl)-2-(3-methyl-2-thienyl)-3-butyn-2-ol], less than 1000 nM. As for `Cc1cc(C(C)(O)C#Cc2ccc3c(c2)N(c2ccnc(N)n2)CC3)c(C)o1` (stereo not drawn) [Example 279, 4-(1-(2-Amino-4-pyrimidinyl)-2,3-dihydro-1H-indol-6-yl)-2-(2,5-dimethyl-3-furanyl)-3-Butyn-2-ol], the figure is 1000 to 30000 nM; as for `Cc1ccc(C(C)(O)C#Cc2ccc3c(c2)N(c2ccnc(N)n2)CC3)s1` (stereo not drawn) [Example 280, 4-(1-(2-Amino-4-pyrimidinyl)-2,3-dihydro-1H-indol-6-yl)-2-(5-methyl-2-thienyl)-3-butyn-2-ol], less than 1000 nM; as for `CC(O)(C#Cc1ccc2c(c1)N(c1ccnc(N)n1)CC2)c1ccc(Cl)s1` (stereo not drawn) [Example 281, 4-(1-(2-Amino-4-pyrimidinyl)-2,3-dihydro-1H-indol-6-yl)-2-(5-chloro-2-thienyl)-3-butyn-2-ol], less than 1000 nM.
